In ChEMBL document CHEMBL1201862, “PubChem BioAssay data set” (2004):
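Cultured in 96-well plates, cells were exposed to test compound for 48 hours across five concentrations. GI50 is the concentration that inhibits growth by half.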 Calls of active or inactive are those of the source. Cut-off read from the data, not from the text of the source: active = GI50 up to about 1.1 µM and inactive = higher.

Key:
Assay in all cases: inhibition of tumour cell growth, NCI panel, 48 h
A549 = system: A549
DLD-1 = system: DLD-1
HOP-18 = system: HOP-18
HOP-92 = system: HOP-92
K562 = system: K562
KM-20L2 = system: KM-20L2
KM12 = system: KM12
LXFL 529 = system: LXFL 529
NCI-H460 = system: NCI-H460
RXF 393 = system: RXF 393
SK-MEL-5 = system: SK-MEL-5
SN12C = system: SN12C
SNB-19 = system: SNB-19
SNB-78 = system: SNB-78
SW-620 = system: SW-620
UO-31 = system: UO-31

Measured: GI50

CN(C)c1n/c(=N/c2ccc(/N=c3\nc(N(C)C)ss3)cc2)ss1
inactive: A549 37.9 µM | DLD-1 13.4 µM | HOP-18 54 µM | HOP-92 > 100 µM | K562 11.7 µM | KM-20L2 48.3 µM | KM12 47.3 µM | LXFL 529 > 33.5 µM | NCI-H460 30.2 µM | RXF 393 16.5 µM | SK-MEL-5 22.4 µM | SN12C 40.3 µM | SNB-19 32.4 µM | SNB-78 17.6 µM | SW-620 > 40.7 µM | UO-31 44 µM

COc1nc2[nH]ccc2c(=O)[nH]1
inactive: A549 > 100 µM | DLD-1 > 100 µM | HOP-18 42.7 µM | HOP-92 > 100 µM | K562 > 100 µM | KM-20L2 > 100 µM | KM12 > 100 µM | LXFL 529 > 100 µM | NCI-H460 > 100 µM | RXF 393 > 100 µM | SK-MEL-5 > 100 µM | SN12C > 100 µM | SNB-19 > 100 µM | SNB-78 > 100 µM | SW-620 > 100 µM | UO-31 > 100 µM

N#CC1(CCCI)CCCC1
inactive: A549 20.6 µM | DLD-1 19.1 µM | HOP-18 13.5 µM | HOP-92 15.6 µM | K562 27.7 µM | KM-20L2 22.6 µM | KM12 17.5 µM | LXFL 529 23.2 µM | NCI-H460 2.92 µM | RXF 393 11 µM | SK-MEL-5 12.9 µM | SN12C 12.3 µM | SNB-19 15.8 µM | SNB-78 20.1 µM | SW-620 10.7 µM | UO-31 27.9 µM

CCOC(=O)Nc1ccc(S(=O)(=O)NCCCl)cc1.CCOC(=O)Nc1ccc(S(=O)(=O)NCCCl)cc1.O=C(O)c1ccc(/N=N/Cl)cc1O
inactive: A549 > 100 µM | DLD-1 > 100 µM | HOP-18 > 100 µM | HOP-92 > 100 µM | K562 > 100 µM | KM-20L2 > 100 µM | KM12 > 100 µM | LXFL 529 > 100 µM | SK-MEL-5 > 100 µM | SN12C > 100 µM | SNB-78 > 100 µM | SW-620 > 100 µM | UO-31 > 100 µM

COc1ccc(NC(=O)CC/C(CC(=O)c2ccccc2Cl)=N\Nc2nnc(C)n2N)cc1
inactive: A549 > 100 µM | DLD-1 > 100 µM | HOP-18 > 100 µM | HOP-92 > 100 µM | K562 61.9 µM | KM-20L2 > 100 µM | KM12 > 100 µM | LXFL 529 > 100 µM | NCI-H460 > 100 µM | RXF 393 > 100 µM | SN12C > 100 µM | SNB-19 > 100 µM | SNB-78 > 100 µM | SW-620 > 100 µM | UO-31 > 100 µM
